# Measured values: patent US20150253306A1 (priority 2012, published 2015)
# System: intact platelets
# Test: mitochondrial respiration of intact platelets (titration protocol)
# Assay type: cell-based, human
# Protocol: Data was recorded with DatLab software 4.3.
# Integrated respiration of intact cells with endogenous mitochondrial substrates was evaluated with two different titration protocols. Platelets were suspended in either PBS-glucose or the control subject's own plasma. […] To evaluate the contribution of respiration independent of ADP phosphorylation, oligomycin (1 μg/ml, ATP-synthase inhibitor) was sequentially added inducing LEAK respiration state (also known as oligomycin-induced state 4 respiration). […] Rotenone (2 μM, complex I [CI] inhibitor) and antimycin-A (1 μg/ml, complex III [CIII] inhibitor) were then sequentially added to inhibit the ETS providing the residual oxygen consumption which was subtracted from the different respiratory parameters in further analyses.
# In order to evaluate the influence on maximal respiratory capacity by the inhibition of ATP-synthase, a second experimental protocol was performed, where ETS capacity was evaluated by direct titration of FCCP after stabilization of routine respiration, followed by the same inhibitors as above. Control ratios were derived from maximal, FCCP-stimulated, respiration divided by LEAK respiration (ETS/LEAK) and routine respiration (ETS/routine).
Compound,"inhibition at 2 µM (Homo sapiens, Platelet, read-out: inhibition of respiration) [%]","further inhibition of respiration after rotenone (intact platelets, antimycin-A 1 μg/ml added after rotenone 2 μM)"
C=C(C)[C@H]1Cc2c(ccc3c2O[C@@H]2COc4cc(OC)c(OC)cc4[C@@H]2C3=O)O1 [rotenone],~99,
antimycin-A,,no further inhibition
